Data as given in patent US9237747B2, “Herbicidal compositions comprising 4-amino-3-chloro-5-fluoro-6-(4-chloro-2-fluoro-3-methoxyphenyl) pyridine-2-carboxylic acid or a derivative thereof and insecticides” (priority 2013, dated 2016).
Where two headings read alike, the source gives them in different places.

What was measured:
CYPIR = format: in vivo, Cyperus iria
From the text: (§1) Seeds or nutlets of the desired test plant species were planted in a soil matrix prepared by mixing a loam or sandy loam soil (e.g., 28.6 percent silt, 18.8 percent clay, and 52.6 percent sand, with a pH of about 5.8 and an organic matter content of about 1.8 percent) and calcareous grit in an 80 to 20 ratio. The soil matrix was contained in plastic pots with a volume of 1 quart and a surface area of 83.6 square centimeters (cm^2). When required to ensure good germination and healthy plants, a fungicide treatment and/or other chemical or physical treatment was applied. The plants were grown for 8-22 days in a greenhouse with an approximate 14 hour (h) photoperiod which was maintained at about 29° C. during the day and 26° C. during the night. Nutrients (Peters Excel® 15-5-15 5-Ca 2-Mg and iron chelate) were applied in the irrigation solution as needed and water was added on a regular basis. Supplemental lighting was provided with overhead metal halide 1000-Watt lamps as necessary. The plants were employed for testing when they reached the first through fourth true leaf stage.
(§2) Treatments consisted of the acid or esters of 4-amino-3-chloro-6-(4-chloro-2-fluoro-3-methoxyphenyl)-5-fluoropyridine-2-carboxylic acid (Compound A), each formulated as an SC (suspension concentrate), and various insecticidal components alone and in combination. Forms of compound A were applied on an acid equivalent basis.
Treatment requirements were calculated based upon the rates being tested, the concentration of active ingredient or acid equivalent in the formulation, and a 12 milliliter (mL) application volume at a rate of 187 liters per hectare (L/ha).
(§3) For treatments comprised of formulated compounds, measured amounts of compounds were placed individually in 25 mL glass vials and diluted in a volume of 1.25% volume per volume (v/v) Agri-Dex® crop oil concentrate to obtain 12× stock solutions. […] Application solutions were prepared by adding an appropriate amount of each stock solution (e.g., 1 mL) and diluted to the appropriate final concentrations with the addition of […] of an aqueous mixture of 1.25% (v/v) crop oil concentrate so that the final spray solutions contained 1.25+/−0.05% (v/v) crop oil concentrate.
(§4) As required, additional water and/or 97:3 v/v acetone/DMSO was added to individual application solutions so that the final acetone and DMSO concentrations of the application solutions being compared were 8.1% and 0.25%, respectively.
(§5) All stock solutions and applications solutions were visually inspected for compound compatibility prior to application. Spray solutions were applied to the plant material with an overhead Mandel track sprayer equipped with 8002E nozzles calibrated to deliver 187 L/ha over an application area of 0.503 square meters (m^2) at a spray height of 18 to 20 inches (46 to 50 cm) above average plant canopy height. Control plants were sprayed in the same manner with the solvent blank.
(§6) The treated plants and control plants were placed in a greenhouse as described above and watered by sub-irrigation to prevent wash-off of the test compounds. After approximately 3 weeks, the condition of the test plants as compared to that of the untreated plants was determined visually and scored on a scale of 0 to 100 percent where 0 corresponds to no injury or growth inhibition and 100 corresponds to complete kill.
(§7) Colby's equation was used to determine the herbicidal effects expected from the mixtures (Colby, S. R. Calculation of the synergistic and antagonistic response of herbicide combinations. Weeds 1967, 15, 20-22.).
(§8) The following equation was used to calculate the expected activity of mixtures containing two active ingredients, A and B: Expected=A+B−(A×B/100)

ECHCO = test: Postemergence foliar-applied weed control, direct-seeded rice (greenhouse); format: in vivo, Echinochloa colonum
Method: as §1, with “When required to ensure good germination and healthy plants, a fungicide treatment and/or other chemical or physical treatment was applied.” left out
as §2, §3, §4, §5, §6, §7, §8

CC(c1ccc(C(F)(F)F)nc1)S(C)(=O)=NC#N (centres unmarked) [Sulfoxaflor, N-[methyloxido[1-[6-(trifluoromethyl)-3-pyridinyl]ethyl]-λ^4-sulfanylidene]cyanamide]
Visual Weed Control (%) - 21 DAA CYPIR Obs (CYPIR; 21 DAA, 75 g ai/ha alone): 0%
Visual Weed Control (%) - 21 DAA CYPIR Obs (CYPIR; 21 DAA, 150 g ai/ha alone): 0%
Visual Weed Control (%) - 21 DAA ECHCO Obs (ECHCO; 12.5 g ai/ha alone): 0%
Visual Weed Control (%) - 21 DAA ECHCO Obs (ECHCO; 25 g ai/ha alone): 0%
Visual Weed Control (%) - 21 DAA ECHCO Obs (ECHCO; 50 g ai/ha alone): 0%

COc1c(Cl)ccc(-c2nc(C(=O)O)c(Cl)c(N)c2F)c1F [Compound A Acid, 4-amino-3-chloro-6-(4-chloro-2-fluoro-3-methoxyphenyl)-5-fluoropyridine-2-carboxylic acid]
Visual Weed Control (%) - 20 DAA CYPIR Obs (CYPIR; 4.38 g ae/ha alone): 30%
Visual Weed Control (%) - 22 DAA ECHCO Obs (ECHCO; 4.38 g ae/ha alone): 55%
Visual Weed Control (%) - 21 DAA ECHCO Obs (ECHCO; 4.38 g ae/ha alone): 60%
Visual Weed Control (%) - 21 DAA ECHCO Obs (ECHCO; 8.75 g ae/ha alone): 90%
Visual Weed Control (%) - 21 DAA ECHCO Obs (ECHCO; 17.5 g ae/ha alone): 95%

COc1c(Cl)ccc(-c2nc(C(=O)OCc3ccccc3)c(Cl)c(N)c2F)c1F [Compound A Benzyl Ester]
Visual Weed Control (%) - 22 DAA CYPIR Obs (CYPIR; 4.38 g ae/ha alone): 70%
Visual Weed Control (%) - 21 DAA CYPIR Obs (CYPIR; 8 g ae/ha alone): 50%
Visual Weed Control (%) - 21 DAA CYPIR Obs (CYPIR; 21 DAA, 8 g ae/ha alone): 50%
Visual Weed Control (%) - 19 DAA ECHCO Obs (ECHCO; 8 g ae/ha alone): 65%
Visual Weed Control (%) - 20 DAA ECHCO Obs (ECHCO; 8 g ae/ha alone): 65%
Visual Weed Control (%) - 19 DAA ECHCO Obs (ECHCO; 16 g ae/ha alone): 90%
Visual Weed Control (%) - 19 DAA ECHCO Obs (ECHCO; 19 DAA, 8 g ae/ha alone): 65%
Visual Weed Control (%) - 19 DAA ECHCO Obs (ECHCO; 19 DAA, 16 g ae/ha alone): 90%
Visual Weed Control (%) - 19 DAA ECHCO Obs (ECHCO; 19 DAA, 32 g ae/ha alone): 95%
Visual Weed Control (%) - 19 DAA ECHCO Obs (ECHCO; 32 g ae/ha alone): 95%
